Counter-ions that a name gives are not always drawn.
test system: Acinetobacter baumannii ATCC17961; experiment: Antimicrobial susceptibility testing: 90% growth inhibitory concentration (IC90) determination; assay type: cell-based; details: Acinetobacter baumannii, ATCC17961, 16 h, 90% growth inhibitory concentration, Acinetobacter baumannii ATCC17961, Iso-Sensitest broth, OD 600 nm over 16 h; read-out: ATCC 17961 IC90
Summary of the method: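 Growth inhibition derived in log phase from OD600 kinetics (every 20 minutes, 16h, 35±2° C) of ATCC17961 in Iso-Sensitest medium, inoculum ~5×10^5 CFU/ml. Compounds tested as twofold series, 10 points (e.g. 50 to 0.097 μM final); IC90 and IC50 reported.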

SMILES | IC90
CC(CO)Cn1cc(-c2ccc(-c3cnc(C(=O)Nc4ccc(C(=O)N5CCN(C(=O)C6CC[N+](C)(C)CC6)CC5)c(Cl)c4)n3C)c(F)c2F)c(C(F)(F)F)n1 (stereo not shown) [Example F7, N-[3-chloro-4-[4-(1,1-dimethylpiperidin-1-ium-4-carbonyl)piperazine-1-carbonyl]phenyl]-5-[2,3-difluoro-4-[1-(3-hydroxy-2-methyl-propyl)-3-(trifluoro-methyl)pyrazol-4-yl]phenyl]-1-methyl-imidazole-2-carboxamide; formate] | 520 nM
Cc1nn(CCOC(F)F)cc1-c1ccc(-c2cnc(C(=O)Nc3ccc(C(=O)N4CCN(C(=O)[C@@H]5C[C@@H](O)C[N+]5(C)C)CC4)c(Cl)c3)n2C)c(F)c1F [Example F9, N-[3-chloro-4-[4-[(2S,4R)-4-hydroxy-1,1-dimethyl-pyrrolidin-1-ium-2-carbonyl]piperazine-1-carbonyl]phenyl]-5-[4-[1-[2-(difluoro-methoxy)ethyl]-3-methyl-pyrazol-4-yl]-2,3-difluoro-phenyl]-1-methyl-imidazole-2-carboxamide; formate] | 160 nM
Cc1c(-c2ccc(-c3cnc(C(=O)Nc4ccc(C(=O)N5CCN(C(=O)[C@@H]6C[C@@H](O)C[N+]6(C)C)CC5)c(Cl)c4)n3C)c(F)c2F)cnn1CCOC(F)F [Example F10, N-[3-chloro-4-[4-[(2S,4R)-4-hydroxy-1,1-dimethyl-pyrrolidin-1-ium-2-carbonyl]piperazine-1-carbonyl]phenyl]-5-[4-[1-[2-(difluoro-methoxy)ethyl]-5-methyl-pyrazol-4-yl]-2,3-difluoro-phenyl]-1-methyl-imidazole-2-carboxamide; formate] | 75 nM
COCCn1cc(-c2ccc(-c3cnc(C(=O)Nc4ccc(C(=O)N5CCN(C(=O)[C@@H]6C[C@@H](O)C[N+]6(C)C)CC5)c(Cl)c4)n3C)c(F)c2F)c(C(C)C)n1 [Example F11, N-[3-chloro-4-[4-[(2S,4R)-4-hydroxy-1,1-dimethyl-pyrrolidin-1-ium-2-carbonyl]piperazine-1-carbonyl]phenyl]-5-[2,3-difluoro-4-[3-isopropyl-1-(2-methoxyethyl)pyrazol-4-yl]phenyl]-1-methyl-imidazole-2-carboxamide; formate] | 800 nM
COCCn1ncc(-c2ccc(-c3cnc(C(=O)Nc4ccc(C(=O)N5CCN(C(=O)[C@@H]6C[C@@H](O)C[N+]6(C)C)CC5)c(Cl)c4)n3C)c(F)c2F)c1C(F)F [Example F12, N-[3-chloro-4-[4-[(2S,4R)-4-hydroxy-1,1-dimethyl-pyrrolidin-1-ium-2-carbonyl]piperazine-1-carbonyl]phenyl]-5-[4-[5-(difluoromethyl)-1-(2-methoxyethyl)pyrazol-4-yl]-2,3-difluoro-phenyl]-1-methyl-imidazole-2-carboxamide; formate] | 170 nM
COCCn1ncc(-c2ccc(-c3cnc(C(=O)Nc4ccc(C(=O)N5CCN(C(=O)[C@@H]6C[C@@H](O)C[N+]6(C)C)CC5)c(C)c4)n3C)c(F)c2F)c1C [Example F14, 5-[2,3-difluoro-4-[1-(2-methoxyethyl)-5-methyl-pyrazol-4-yl]phenyl]-N-[4-[4-[(2S,4R)-4-hydroxy-1,1-dimethyl-pyrrolidin-1-ium-2-carbonyl]piperazine-1-carbonyl]-3-methyl-phenyl]-1-methyl-imidazole-2-carboxamide; 2,2,2-trifluoroacetate] | 100 nM
COCCn1ncc(-c2ccc(-c3cnc(C(=O)Nc4ccc(C(=O)N5CCN(C(=O)[C@@H]6C[C@@H](O)C[N+]6(C)C)CC5)c(Cl)c4)n3C)c(F)c2F)c1C [Example F15, N-[3-chloro-4-[4-[(2S,4R)-4-hydroxy-1,1-dimethyl-pyrrolidin-1-ium-2-carbonyl]piperazine-1-carbonyl]phenyl]-5-[2,3-difluoro-4-[1-(2-methoxyethyl)-5-methyl-pyrazol-4-yl]phenyl]-1-methyl-imidazole-2-carboxamide; 2,2,2-trifluoroacetate] | 55 nM
Cc1nn(CCCO)cc1-c1ccc(-c2cnc(C(=O)Nc3ccc(C(=O)N4CCN(C(=O)[C@@H]5C[C@@H](O)C[N+]5(C)C)CC4)c(Cl)c3)n2C)c(F)c1F [Example F16, N-[3-chloro-4-[4-[(2S,4R)-4-hydroxy-1,1-dimethyl-pyrrolidin-1-ium-2-carbonyl]piperazine-1-carbonyl]phenyl]-5-[2,3-difluoro-4-[1-(3-hydroxypropyl)-3-methyl-pyrazol-4-yl]phenyl]-1-methyl-imidazole-2-carboxamide; formate] | 240 nM

Next, values leading:

IC90 | SMILES
270 nM | Cc1c(-c2ccc(-c3cnc(C(=O)Nc4ccc(C(=O)N5CCN(C(=O)[C@@H]6C[C@@H](O)C[N+]6(C)C)CC5)c(Cl)c4)n3C)c(F)c2F)cnn1CCCO [Example F17, N-[3-chloro-4-[4-[(2S,4R)-4-hydroxy-1,1-dimethyl-pyrrolidin-1-ium-2-carbonyl]piperazine-1-carbonyl]phenyl]-5-[2,3-difluoro-4-[1-(3-hydroxypropyl)-5-methyl-pyrazol-4-yl]phenyl]-1-methyl-imidazole-2-carboxamide; formate]
1100 nM | COCCn1ncc(-c2ccc(-c3cnc(C(=O)Nc4ccc(C(=O)N5CCN(C(=O)C6CC[N+](C)(C)CC6)CC5)c(Cl)c4)n3C)c(OC)c2)c1C [Example F18, N-[3-chloro-4-[4-(1,1-dimethylpiperidin-1-ium-4-carbonyl)piperazine-1-carbonyl]phenyl]-5-[2-methoxy-4-[1-(2-methoxyethyl)-5-methyl-pyrazol-4-yl]phenyl]-1-methyl-imidazole-2-carboxamide; formate]
330 nM | COCCn1ncc(-c2ccc(-c3cnc(C(=O)Nc4ccc(C(=O)N5CCN(C(=O)C6CC[N+](C)(C)CC6)CC5)c(Cl)c4)n3C)c(C)c2)c1C [Example F19, N-[3-chloro-4-[4-(1,1-dimethylpiperidin-1-ium-4-carbonyl)piperazine-1-carbonyl]phenyl]-5-[4-[1-(2-methoxyethyl)-5-methyl-pyrazol-4-yl]-2-methyl-phenyl]-1-methyl-imidazole-2-carboxamide; formate]
180 nM | CCc1c(-c2ccc(-c3cnc(C(=O)Nc4ccc(C(=O)N5CCN(C(=O)[C@@H]6C[C@@H](O)C[N+]6(C)C)CC5)c(Cl)c4)n3C)c(F)c2F)cnn1CCOC [Example F20, N-[3-chloro-4-[4-[(2S,4R)-4-hydroxy-1,1-dimethyl-pyrrolidin-1-ium-2-carbonyl]piperazine-1-carbonyl]phenyl]-5-[4-[5-ethyl-1-(2-methoxyethyl)pyrazol-4-yl]-2,3-difluoro-phenyl]-1-methyl-imidazole-2-carboxamide; formate]
170 nM | COCCn1ncc(-c2ccc(-c3cnc(C(=O)Nc4ccc(C(=O)N5CCN(C(=O)C6CC[N+](C)(C)CC6)CC5)c(Cl)c4)n3C)c(Cl)c2)c1C [Example F22, N-[3-chloro-4-[4-(1,1-dimethylpiperidin-1-ium-4-carbonyl)piperazine-1-carbonyl]phenyl]-5-[2-chloro-4-[1-(2-methoxyethyl)-5-methyl-pyrazol-4-yl]phenyl]-1-methyl-imidazole-2-carboxamide; formate]
750 nM | COCCn1ncc(-c2ccc(-c3cnc(C(=O)Nc4ccc(C(=O)N5CCN(C(=O)C6CC[N+](C)(C)CC6)CC5)c(Cl)c4)n3C)c(OC)c2F)c1C [Example F23, N-[3-chloro-4-[4-(1,1-dimethylpiperidin-1-ium-4-carbonyl)piperazine-1-carbonyl]phenyl]-5-[3-fluoro-2-methoxy-4-[1-(2-methoxyethyl)-5-methyl-pyrazol-4-yl]phenyl]-1-methyl-imidazole-2-carboxamide; formate]
590 nM | CCc1nn(CCOC)cc1-c1ccc(-c2cnc(C(=O)Nc3ccc(C(=O)N4CCN(C(=O)CC5(O)CC[N+](C)(C)CC5)CC4)c(Cl)c3)n2C)c(F)c1F [Example F24, N-[3-chloro-4-[4-[2-(4-hydroxy-1,1-dimethyl-piperidin-1-ium-4-yl)acetyl]piperazine-1-carbonyl]phenyl]-5-[4-[3-ethyl-1-(2-methoxyethyl)pyrazol-4-yl]-2,3-difluoro-phenyl]-1-methyl-imidazole-2-carboxamide; formate]
1200 nM | COCCn1cc(-c2ccc(-c3cnc(C(=O)Nc4ccc(C(=O)N5CCN(C(=O)C6CC[N+](C)(C)CC6)CC5)c(Cl)c4)n3C)c(F)c2F)c(CO)n1 [Example F25, N-[3-chloro-4-[4-(1,1-dimethylpiperidin-1-ium-4-carbonyl)piperazine-1-carbonyl]phenyl]-5-[2,3-difluoro-4-[3-(hydroxymethyl)-1-(2-methoxyethyl)pyrazol-4-yl]phenyl]-1-methyl-imidazole-2-carboxamide; formate]
1400 nM | COCCn1cc(-c2ccc(-c3cnc(C(=O)Nc4ccc(C(=O)N5CCN(C(=O)C6CC[N+](C)(C)CC6)CC5)c(Cl)c4)n3C)c(F)c2F)c(N)n1 [Example F26, 5-[4-[3-amino-1-(2-methoxyethyl)pyrazol-4-yl]-2,3-difluoro-phenyl]-N-[3-chloro-4-[4-(1,1-dimethylpiperidin-1-ium-4-carbonyl)piperazine-1-carbonyl]phenyl]-1-methyl-imidazole-2-carboxamide; formate]
400 nM | Cn1c(-c2ccc(-c3c[nH]nc3-c3ccccc3)c(F)c2F)cnc1C(=O)Nc1ccc(C(=O)N2CCN(C(=O)C3CC[N+](C)(C)CC3)CC2)c(Cl)c1 [Example F27, N-[3-chloro-4-[4-(1,1-dimethylpiperidin-1-ium-4-carbonyl)piperazine-1-carbonyl]phenyl]-5-[2,3-difluoro-4-(3-phenyl-1H-pyrazol-4-yl)phenyl]-1-methyl-imidazole-2-carboxamide; formate]
270 nM | Cn1c(-c2ccc(-c3cnn4c3CCC4)c(F)c2F)cnc1C(=O)Nc1ccc(C(=O)N2CCN(C(=O)C3CC[N+](C)(C)CC3)CC2)c(Cl)c1 [Example F28, N-[3-chloro-4-[4-(1,1-dimethylpiperidin-1-ium-4-carbonyl)piperazine-1-carbonyl]phenyl]-5-[4-(5,6-dihydro-4H-pyrrolo[1,2-b]pyrazol-3-yl)-2,3-difluoro-phenyl]-1-methyl-imidazole-2-carboxamide; formate]

From patent US12421211B2, “Heterocyclic compounds” (Hoffmann-La Roche Inc., priority 2021, dated 2025)
